{"source": "patent US12060588B2", "about": "“Methods of editing DNA methylation” (Whitehead Institute for Biomedical Research, priority 2016, dated 2024)", "key": {"[1]": {"tested_on": "MyoD distal enhancer (DMR-5) / MyoD expression", "test": "MyoD expression in C3H10T1/2 cells (RT-qPCR)", "assay_type": "cell-based, mouse"}, "[2]": {"tested_on": "Snrpn promoter region (Dazl-Snrpn-GFP reporter)", "test": "Activation of the Dazl-Snrpn-GFP methylation reporter in mESCs (flow cytometry)", "assay_type": "cell-based, mouse", "conditions": "lentiviral infection, 3 days, FACS", "experimental": "FIGS. 1A-IF depict activation of the Daz1-Snrpn-GFP reporter by dCas9-Tet1. […] FIG. 1B is a schematic representation of targeting the Snrpn promoter region by dCas9-Tet1 with specific gRNAs to erase methylation and activate GFP expression. […] Percentage of GFP positive cells were calculated by flow cytometric analysis of these cells 3-day post infection, and shown as the mean percentages of GFP positive cells±SD of two biological replicates. Note that the percentages of GFP-positive cells are expressed as the fraction of infected Cherry-positive cells. […] Scale bar: 250 um. Right: provides percentages of GFP positive colonies were quantified, and shown as the mean percentages of GFP positive cells±SD of two biological replicates. […] FIG. 1F provides methylation levels of individual CpGs in the Snrpn promoter region and the adjacent Dazl locus. Shown is the mean percentage±SD of two biological replicates.\nTo assess whether the dCas9-Tet1 and -Dnmt3a fusion constructs would induce demethylation or de novo methylation, respectively, of specific sequences, we utilized a methylation reporter system previously developed in our laboratory (Stelzer et al., 2015). This reporter system consists of a synthetic methylation-sensing promoter (conserved sequence elements from the promoter of an imprinted gene, Snrpn) that controls the expression of a green fluorescence protein (GFP). […]"}}, "data": [{"substance": "dCas9-Tet1: catalytically inactive Cas9 (dCas9) fused through NLS to the Tet1 catalytic domain, SEQ ID NO: 159; lentivirally expressed with gRNAs", "values": [{"measurement": "induction of MyoD expression", "setting": "[1]; MyoD DMR-5 gRNAs combined with 5-Aza treatment (48-hour)", "result": "higher induction of MyoD"}, {"measurement": "induction of MyoD expression", "setting": "[1]; with 4 gRNAs targeting DMR-5, C3H10T1/2 cells, 2 days, Cherry positive sorted", "result": 3, "unit": "fold"}, {"measurement": "GFP positive cells among the Cherry positive population", "setting": "[2]; with 4 target gRNAs (Snrpn promoter)", "result": "about 26%"}, {"measurement": "GFP positive cells among the Cherry positive population", "setting": "[2]; with a scrambled gRNA", "result": 1, "unit": "%"}]}]}
